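1) Cells in 96-well plates. 2) Compound, 48 h, 5 concentrations. 3) Linear interpolation between surrounding doses. 4) Unreached endpoint = highest concentration. GI50 marks 50% less growth.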 The source made the active and inactive calls. Rule as the data show it: active = GI50 up to about 1.1 µM and inactive = higher.
Experiments:
Assay in all cases: NCI tumour cell line growth inhibition, 48 h
OVCAR-3 = test system: OVCAR-3
NCI-H522 = test system: NCI-H522
DLD-1 = test system: DLD-1
HT-29 = test system: HT-29
SW-620 = test system: SW-620
TK-10 = test system: TK-10
UACC-62 = test system: UACC-62
M19-MEL = test system: M19-MEL
SF-295 = test system: SF-295
CAKI-1 = test system: CAKI-1
ACHN = test system: ACHN
EKVX = test system: EKVX
IGROV-1 = test system: IGROV-1
NCI-H460 = test system: NCI-H460
SK-MEL-5 = test system: SK-MEL-5
U-251 = test system: U-251
SF-268 = test system: SF-268
OVCAR-5 = test system: OVCAR-5
SK-OV-3 = test system: SK-OV-3
OVCAR-4 = test system: OVCAR-4
SK-MEL-28 = test system: SK-MEL-28
XF498 = test system: XF498
LXFL 529 = test system: LXFL 529
SF-539 = test system: SF-539
NCI-H23 = test system: NCI-H23
HOP-92 = test system: HOP-92
UACC-257 = test system: UACC-257
M14 = test system: M14
Malme-3M = test system: Malme-3M
RPMI-8226 = test system: RPMI-8226
OVCAR-8 = test system: OVCAR-8
SNB-75 = test system: SNB-75
COLO 205 = test system: COLO 205
HOP-62 = test system: HOP-62
SNB-78 = test system: SNB-78
KM-20L2 = test system: KM-20L2
SN12C = test system: SN12C
RXF 393 = test system: RXF 393
HL-60 = test system: HL-60
K562 = test system: K562
786-0 = test system: 786-0
LOX IMVI = test system: LOX IMVI
MOLT-4 = test system: MOLT-4
CCRF-CEM = test system: CCRF-CEM
KM12 = test system: KM12
DMS-273 = test system: DMS-273
UO-31 = test system: UO-31
HCC 2998 = test system: HCC 2998
SNB-19 = test system: SNB-19
HCT-15 = test system: HCT-15
SK-MEL-2 = test system: SK-MEL-2
NCI-H226 = test system: NCI-H226
A549 = test system: A549
SR = test system: SR
HCT-116 = test system: HCT-116
DMS-114 = test system: DMS-114
HOP-18 = test system: HOP-18
A498 = test system: A498

SMILES: Cn1cc(C(=O)c2ccccc2)ccc1=O
- GI50 (OVCAR-3): > 100 µM (inactive)
- GI50 (NCI-H522): > 100 µM (inactive)
- GI50 (DLD-1): > 100 µM (inactive)
- GI50 (HT-29): > 100 µM (inactive)
- GI50 (SW-620): > 100 µM (inactive)
- GI50 (TK-10): > 100 µM (inactive)
- GI50 (UACC-62): > 100 µM (inactive)
- GI50 (M19-MEL): > 100 µM (inactive)
- GI50 (SF-295): > 100 µM (inactive)
- GI50 (CAKI-1): > 100 µM (inactive)
- GI50 (ACHN): > 100 µM (inactive)
- GI50 (EKVX): > 100 µM (inactive)
- GI50 (IGROV-1): > 100 µM (inactive)
- GI50 (NCI-H460): > 100 µM (inactive)
- GI50 (SK-MEL-5): > 100 µM (inactive)
- GI50 (U-251): > 100 µM (inactive)
- GI50 (SF-268): > 100 µM (inactive)
- GI50 (OVCAR-5): > 100 µM (inactive)
- GI50 (SK-OV-3): > 100 µM (inactive)
- GI50 (OVCAR-4): > 100 µM (inactive)
- GI50 (SK-MEL-28): > 100 µM (inactive)
- GI50 (XF498): > 100 µM (inactive)
- GI50 (LXFL 529): > 100 µM (inactive)
- GI50 (SF-539): > 100 µM (inactive)
- GI50 (NCI-H23): > 100 µM (inactive)
- GI50 (HOP-92): > 100 µM (inactive)
- GI50 (UACC-257): > 100 µM (inactive)
- GI50 (M14): > 100 µM (inactive)
- GI50 (Malme-3M): > 100 µM (inactive)
- GI50 (RPMI-8226): > 100 µM (inactive)
- GI50 (OVCAR-8): > 100 µM (inactive)
- GI50 (SNB-75): > 100 µM (inactive)
- GI50 (COLO 205): > 100 µM (inactive)
- GI50 (HOP-62): > 100 µM (inactive)
- GI50 (SNB-78): > 100 µM (inactive)
- GI50 (KM-20L2): > 100 µM (inactive)
- GI50 (SN12C): > 100 µM (inactive)
- GI50 (RXF 393): > 100 µM (inactive)
- GI50 (HL-60): > 100 µM (inactive)
- GI50 (K562): > 100 µM (inactive)
- GI50 (786-0): > 100 µM (inactive)
- GI50 (LOX IMVI): > 100 µM (inactive)
- GI50 (MOLT-4): > 100 µM (inactive)
- GI50 (CCRF-CEM): > 100 µM (inactive)
- GI50 (KM12): > 100 µM (inactive)
- GI50 (DMS-273): > 100 µM (inactive)
- GI50 (UO-31): > 100 µM (inactive)
- GI50 (HCC 2998): > 100 µM (inactive)
- GI50 (SNB-19): > 100 µM (inactive)
- GI50 (HCT-15): > 100 µM
- GI50 (SK-MEL-2): > 100 µM (inactive)
- GI50 (NCI-H226): > 100 µM (inactive)
- GI50 (A549): > 100 µM (inactive)
- GI50 (SR): > 100 µM (inactive)
- GI50 (HCT-116): > 100 µM (inactive)
- GI50 (DMS-114): > 100 µM (inactive)

SMILES: Cc1cc2c(c(N)c1C)C(=O)c1ccccc1C2=O
- GI50 (NCI-H522): 21.7 µM (inactive)
- GI50 (DLD-1): 62.7 µM (inactive)
- GI50 (HT-29): 49.5 µM (inactive)
- GI50 (SW-620): 59.7 µM (inactive)
- GI50 (TK-10): 37.5 µM (inactive)
- GI50 (UACC-62): 5.12 µM (inactive)
- GI50 (M19-MEL): 65.5 µM (inactive)
- GI50 (SF-295): 27.4 µM (inactive)
- GI50 (CAKI-1): 14.5 µM (inactive)
- GI50 (ACHN): 14.1 µM (inactive)
- GI50 (IGROV-1): 12.6 µM (inactive)
- GI50 (NCI-H460): 34.5 µM (inactive)
- GI50 (HOP-18): 1.56 µM (inactive)
- GI50 (SK-MEL-5): 20.2 µM (inactive)
- GI50 (U-251): 20.3 µM (inactive)
- GI50 (SF-268): 25.5 µM (inactive)
- GI50 (A498): 19.7 µM (inactive)
- GI50 (OVCAR-5): > 100 µM (inactive)
- GI50 (SK-OV-3): 17.5 µM (inactive)
- GI50 (OVCAR-4): 17.5 µM (inactive)
- GI50 (LXFL 529): 28.8 µM (inactive)
- GI50 (SF-539): 12.5 µM (inactive)
- GI50 (HOP-92): 18 µM (inactive)
- GI50 (UACC-257): 87.1 µM (inactive)
- GI50 (M14): 29.2 µM (inactive)
- GI50 (Malme-3M): 42.3 µM (inactive)
- GI50 (RPMI-8226): 52.1 µM (inactive)
- GI50 (OVCAR-8): 20 µM (inactive)
- GI50 (SNB-75): 12.5 µM (inactive)
- GI50 (COLO 205): > 100 µM (inactive)
- GI50 (HOP-62): 13.9 µM (inactive)
- GI50 (SNB-78): > 100 µM (inactive)
- GI50 (KM-20L2): 25 µM (inactive)
- GI50 (SN12C): 49.1 µM (inactive)
- GI50 (RXF 393): 29 µM (inactive)
- GI50 (HL-60): > 100 µM (inactive)
- GI50 (K562): > 100 µM (inactive)
- GI50 (786-0): 20.2 µM (inactive)
- GI50 (LOX IMVI): 17.7 µM (inactive)
- GI50 (MOLT-4): > 100 µM (inactive)
- GI50 (CCRF-CEM): > 100 µM (inactive)
- GI50 (KM12): 11.1 µM (inactive)
- GI50 (DMS-273): 24.4 µM (inactive)
- GI50 (UO-31): 10.6 µM (inactive)
- GI50 (HCC 2998): 40.6 µM (inactive)
- GI50 (SNB-19): 27.9 µM (inactive)
- GI50 (HCT-15): 45.8 µM
- GI50 (SK-MEL-2): 66.8 µM (inactive)
- GI50 (A549): 26.3 µM (inactive)
- GI50 (SR): > 100 µM (inactive)
- GI50 (HCT-116): 19 µM (inactive)
- GI50 (DMS-114): 32.1 µM (inactive)

SMILES: CCCCCCCCCCCCCB(O)O
- GI50 (OVCAR-3): > 100 µM (inactive)
- GI50 (SW-620): > 100 µM (inactive)
- GI50 (U-251): > 100 µM (inactive)
- GI50 (OVCAR-5): > 100 µM (inactive)
- GI50 (XF498): > 100 µM (inactive)
- GI50 (NCI-H23): > 100 µM (inactive)
- GI50 (M14): > 100 µM (inactive)
- GI50 (CCRF-CEM): > 100 µM (inactive)
- GI50 (DMS-273): > 100 µM (inactive)
- GI50 (SNB-19): > 100 µM (inactive)
- GI50 (SK-MEL-2): > 100 µM (inactive)
- GI50 (DMS-114): > 100 µM (inactive)
